Source: ChEMBL document CHEMBL1126680, “Structure-activity relationships of 8-styrylxanthines as A2-selective adenosine antagonists” (J Med Chem, 1993)

target: Adenosine A2 receptor (Rattus norvegicus) (UniProt P29276+P30543); assay: Binding affinity against Adenosine A2 receptor in rat brain using [3H]- CGS 21680; format: tissue-based; conditions: concentration not given here

inhibition [%] | SMILES
22 | COc1cc(/C=C/c2nc3c(c(=O)n(C)c(=O)n3C)n2CCO)cc(OC)c1OC

target: Adenosine A2 receptor (Rattus norvegicus, UniProt P29276+P30543); assay: Binding affinity against adenosine A2 receptor in rat brain using [3H]- CGS 21680 as radioligand; format: tissue-based; conditions: not given

Ki [nM] | SMILES
516 | Cn1c(=O)c2nc(/C=C/c3cccc(F)c3)[nH]c2n(C)c1=O
143 | Cn1c(=O)c2c(nc(/C=C/c3cccc(NC(=O)CCC(=O)O)c3)n2C)n(C)c1=O
120 | COc1cc(/C=C/c2nc3c(=O)n(C)c(=O)n(C)c3[nH]2)cc(OC)c1
83 | Cn1c(=O)c2c(nc(/C=C/c3cccc(F)c3)n2C)n(C)c1=O
68.5 | CCCn1c(=O)c2c(nc(/C=C/c3ccc(OC)c(OC)c3OC)n2C)n(CCC)c1=O
210 | CCCn1c(=O)c2nc(/C=C/c3cc(OC)cc(OC)c3)[nH]c2n(CCC)c1=O
323 | CCCn1c(=O)c2nc(/C=C/c3cc(OC)c(OC)cc3OC)[nH]c2n(CCC)c1=O
134 | Cn1c(=O)c2c(nc(/C=C/c3cccc(C(F)(F)F)c3)n2C)n(C)c1=O
57 | Cn1c(=O)c2c(nc(/C=C/c3cccc(N)c3)n2C)n(C)c1=O
206 | COc1ccc(/C=C/c2nc3c(c(=O)n(C)c(=O)n3C)n2C)c(OC)c1OC
450 | COc1cc(/C=C/c2nc3c(c(=O)n(C)c(=O)n3C)n2C)cc(OC)c1O
343 | Cn1c(=O)c2nc(/C=C/c3cccc(C(F)(F)F)c3)[nH]c2n(C)c1=O
153 | CCCn1c(=O)c2nc(/C=C/c3cccc(F)c3)[nH]c2n(CCC)c1=O
4740 | COc1cccc2cc(-c3nc4c(c(=O)n(C)c(=O)n4C)n3C)oc12
438 | Cn1c(=O)c2nc(/C=C/c3cccc([N+](=O)[O-])c3)[nH]c2n(C)c1=O
1610 | COc1ccc(/C=C/c2nc3c(=O)n(C)c(=O)n(C)c3[nH]2)c(OC)c1OC
75.3 | COc1cc(/C=C/c2nc3c(c(=O)n(C)c(=O)n3C)n2C)cc(OC)c1
39 | CC(=O)Nc1cccc(/C=C/c2nc3c(c(=O)n(C)c(=O)n3C)n2C)c1
64 | CCCn1c(=O)c2nc(/C=C/c3ccc(OC)c(OC)c3OC)[nH]c2n(CCC)c1=O
53 | CCCn1c(=O)c2c(nc(/C=C/c3cc(F)cc(F)c3)n2C)n(CCC)c1=O
68 | COc1cc(/C=C/c2nc3c(c(=O)n(C)c(=O)n3C)n2C)cc(OC)c1OC(C)=O

Ki [nM] | SMILES
882 | CCn1c(/C=C/c2cc(OC)c(OC)c(OC)c2)nc2c1c(=O)n(C)c(=O)n2C
353 | COc1cc(/C=C/c2nc3c(c(=O)n(C)c(=O)n3C)n2C)cc(OC)c1OC/C=C/CNC(=O)OC(C)(C)C
197 | COc1ccc(/C=C/c2nc3c(c(=O)n(C)c(=O)n3C)n2C)cc1OC
525 | C#CCn1c(/C=C/c2cc(OC)c(OC)c(OC)c2)nc2c1c(=O)n(C)c(=O)n2C
784 | Cn1c(=O)c2c(nc(/C=C/c3cccc(NC(=O)OC(C)(C)C)c3)n2C)n(C)c1=O
303 | Cn1c(=O)c2nc(/C=C/c3cccc(O)c3)[nH]c2n(C)c1=O
267 | COc1ccccc1/C=C/c1nc2c(c(=O)n(C)c(=O)n2C)n1C
139 | COc1cc(/C=C/c2nc3c(c(=O)n(C)c(=O)n3C)n2C)cc(OC)c1OCc1ccccc1
378 | COc1cccc(/C=C/c2nc3c(=O)n(C)c(=O)n(C)c3[nH]2)c1
346 | CCCn1c(=O)c2nc(/C=C/c3cc(F)cc(F)c3)[nH]c2n(CCC)c1=O
84.8 | COc1cccc(/C=C/c2nc3c(c(=O)n(C)c(=O)n3C)n2C)c1
716 | COc1cccc(/C=C/c2nc3c(c(=O)n(C)c(=O)n3C)n2C)c1OC
33 | CCCn1c(=O)c2c(nc(/C=C/c3cccc(F)c3)n2C)n(CCC)c1=O
291 | Cn1c(=O)c2nc(/C=C/c3ccccc3)[nH]c2n(C)c1=O
327 | CCCn1c(=O)c2c(nc(/C=C/c3cc(OC)c(OC)cc3OC)n2C)n(CCC)c1=O
173 | COc1cc(/C=C/c2nc3c(c(=O)n(C)c(=O)n3C)n2C)cc(OC)c1OCCCCN
9270 | CN(C)c1ccc(/C=C/c2nc3c(c(=O)n(C)c(=O)n3C)n2C)cc1
202 | Cn1c(=O)c2nc(/C=C/c3cccc(N)c3)[nH]c2n(C)c1=O
65 | Cn1c(=O)c2c(nc(/C=C/c3cc(F)cc(F)c3)n2C)n(C)c1=O
216 | CCCn1c(=O)c2nc(/C=C/c3cccc(Cl)c3)[nH]c2n(CCC)c1=O
24 | CCCn1c(=O)c2c(nc(/C=C/c3cc(OC)cc(OC)c3)n2C)n(CCC)c1=O

Ki [nM] | SMILES
269 | CCn1c(=O)c2nc(/C=C/c3cc(OC)c(OC)c(OC)c3)[nH]c2n(CC)c1=O
44 | CCCn1c(=O)c2nc(/C=C/c3ccccc3)[nH]c2n(CCC)c1=O
472 | COc1ccc(/C=C/c2nc3c(=O)n(C)c(=O)n(C)c3[nH]2)cc1
18.9 | CCCn1c(=O)c2c(nc(/C=C/c3cccc(N)c3)n2C)n(CCC)c1=O
12800 | CN(C)c1ccc(/C=C/c2nc3c(=O)n(C)c(=O)n(C)c3[nH]2)cc1
3900 | COc1cccc2cc(-c3nc4c(=O)n(C)c(=O)n(C)c4[nH]3)oc12
265 | COc1cc(/C=C/c2nc3c(c(=O)n(C)c(=O)n3C)n2C)cc(OC)c1OCCCCNC(=O)OC(C)(C)C
216 | COc1cc(/C=C/c2nc3c(c(=O)n(C)c(=O)n3C)n2C)cc(OC)c1OC/C=C/CNC(C)=O
740 | Cn1c(=O)c2c(nc(/C=C/c3cccc(N(C(=O)OC(C)(C)C)C(=O)OC(C)(C)C)c3)n2C)n(C)c1=O
645 | COc1ccccc1/C=C/c1nc2c(=O)n(C)c(=O)n(C)c2[nH]1
600 | COc1cccc(/C=C/c2nc3c(=O)n(C)c(=O)n(C)c3[nH]2)c1OC
195 | Cn1c(=O)c2c(nc(/C=C/c3cccc([N+](=O)[O-])c3)n2C)n(C)c1=O
2110 | Cn1c(=O)c2nc(/C(F)=C/c3ccccc3)[nH]c2n(C)c1=O
366 | Cn1c(=O)c2nc(/C=C/c3cc(F)cc(F)c3)[nH]c2n(C)c1=O
228 | COc1cc(/C=C/c2nc3c(c(=O)n(C)c(=O)n3C)n2C)cc(OC)c1OC/C=C/CN
18000 | Cn1c(=O)c2c(nc(CCc3cccc(N)c3)n2C)n(C)c1=O
56.2 | CCCn1c(=O)c2c(nc(/C=C/c3cccc([N+](=O)[O-])c3)n2C)n(CCC)c1=O
1100 | COc1ccc(/C=C/c2nc3c(=O)n(C)c(=O)n(C)c3[nH]2)cc1OC
327 | COc1ccc(/C=C/c2nc3c(c(=O)n(C)c(=O)n3C)n2C)cc1

SMILES | Ki [nM]
COc1cc(/C=C/c2nc3c(c(=O)n(C)c(=O)n3C)n2CCc2ccccc2)cc(OC)c1OC | 14

target: T1, Adenosine receptor A1 (Rattus norvegicus, UniProt P25099); assay: Affinity against Adenosine A1 receptor in rat brain using [3H]- PIA as radioligand; format: tissue-based; conditions: not given
T1 sequence (P25099 whole entry): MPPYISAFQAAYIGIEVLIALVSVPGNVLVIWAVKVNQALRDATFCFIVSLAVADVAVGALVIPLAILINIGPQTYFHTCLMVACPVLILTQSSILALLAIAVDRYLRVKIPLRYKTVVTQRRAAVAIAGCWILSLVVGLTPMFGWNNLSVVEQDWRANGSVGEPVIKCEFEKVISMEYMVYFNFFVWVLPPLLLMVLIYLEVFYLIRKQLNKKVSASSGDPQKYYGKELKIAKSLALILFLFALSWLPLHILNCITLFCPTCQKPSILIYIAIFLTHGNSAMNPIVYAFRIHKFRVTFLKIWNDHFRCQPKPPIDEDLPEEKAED

Ki [nM] | SMILES
23600 | Cn1c(=O)c2c(nc(/C=C/c3cccc(NC(=O)OC(C)(C)C)c3)n2C)n(C)c1=O
1930 | C=CCn1c(=O)c2c(nc(/C=C/c3cc(OC)c(OC)c(OC)c3)n2C)n(CC=C)c1=O
1770 | COc1cccc2cc(-c3nc4c(=O)n(C)c(=O)n(C)c4[nH]3)oc12
2280 | COc1cc(/C=C/c2nc3c(=O)n(C)c(=O)n(C)c3[nH]2)cc(OC)c1OC
9200 | COc1cc(/C=C/c2nc3c(c(=O)n(C)c(=O)n3C)n2C)cc(OC)c1OC

target: T2, Adenosine receptor A1 (Rattus norvegicus) (UniProt P25099); assay: Binding affinity against Adenosine A1 receptor in rat brain using [3H]- PIA; format: tissue-based; conditions: concentration not given here
T2 sequence (whole entry): T1 sequence (P25099 whole entry)

inhibition [%] | SMILES
26 | COc1ccc(/C=C/c2nc3c(=O)n(C)c(=O)n(C)c3[nH]2)c(OC)c1OC
12.5 | COc1cc(/C=C/c2nc3c(c(=O)n(C)c(=O)n3C)n2C)cc(OC)c1
11 | COc1cc(/C=C/c2nc3c(c(=O)n(C)c(=O)n3C)n2C)cc(OC)c1OC/C=C/CNC(=O)OC(C)(C)C
5.6 | CN(C)c1ccc(/C=C/c2nc3c(c(=O)n(C)c(=O)n3C)n2C)cc1
26 | COc1cc(/C=C/c2nc3c(c(=O)n(C)c(=O)n3C)n2CCO)cc(OC)c1OC
17 | COc1cc(/C=C/c2nc3c(c(=O)n(C)c(=O)n3C)n2C)cc(OC)c1OC/C=C/CNC(C)=O
15 | Cn1c(=O)c2c(nc(CCc3cccc(N)c3)n2C)n(C)c1=O
